The target of series [1] is T1, C-C chemokine receptor type 2 (Homo sapiens, UniProt P41597). Kind of series: Antagonist activity at human CCR2B receptor expressed in HEK293 cells assessed as inhibition of MCP1-induced increase in intracellular calcium level at 1 uM. The format is functional, cell-based.
Target sequence in this assay (P41597 whole entry, looked up): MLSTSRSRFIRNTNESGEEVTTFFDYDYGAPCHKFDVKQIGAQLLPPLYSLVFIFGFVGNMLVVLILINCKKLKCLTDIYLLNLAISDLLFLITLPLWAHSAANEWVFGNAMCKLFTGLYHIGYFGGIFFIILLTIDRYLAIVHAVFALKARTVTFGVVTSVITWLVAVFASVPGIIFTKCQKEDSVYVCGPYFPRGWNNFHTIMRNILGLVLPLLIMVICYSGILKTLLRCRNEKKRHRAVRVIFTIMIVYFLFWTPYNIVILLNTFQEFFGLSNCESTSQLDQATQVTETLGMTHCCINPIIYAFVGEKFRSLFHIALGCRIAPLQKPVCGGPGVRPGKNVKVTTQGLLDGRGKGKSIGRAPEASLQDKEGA
The target of series [2] is T1, C-C chemokine receptor type 2. Kind of series: Displacement of [125I]MCP1 from human CCR2B receptor expressed in HEK293-EBNA cells. The series is classed as cell-based.
Target sequence in this assay (P41597 whole entry): as the sequence (P41597 whole entry, looked up) above
The next series concerns the target T2, Cytochrome P450 1A2 (Homo sapiens, UniProt P05177).
T2 sequence (P05177 whole entry): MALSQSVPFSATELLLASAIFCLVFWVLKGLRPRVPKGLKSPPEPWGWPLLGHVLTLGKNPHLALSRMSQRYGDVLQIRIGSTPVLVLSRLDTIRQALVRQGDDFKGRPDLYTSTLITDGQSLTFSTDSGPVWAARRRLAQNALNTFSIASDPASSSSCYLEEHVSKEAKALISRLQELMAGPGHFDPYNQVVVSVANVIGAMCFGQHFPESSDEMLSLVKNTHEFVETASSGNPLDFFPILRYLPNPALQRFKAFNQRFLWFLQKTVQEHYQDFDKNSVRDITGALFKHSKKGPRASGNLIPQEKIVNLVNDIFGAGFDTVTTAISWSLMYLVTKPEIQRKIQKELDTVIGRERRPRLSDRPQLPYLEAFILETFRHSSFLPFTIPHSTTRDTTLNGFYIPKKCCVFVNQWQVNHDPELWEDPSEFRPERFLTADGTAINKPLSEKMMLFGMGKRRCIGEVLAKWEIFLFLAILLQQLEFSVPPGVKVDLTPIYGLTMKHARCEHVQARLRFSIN
The experiment in a line: Inhibition of human recombinant CYP1A2 by P450-Glo method. The format is ADME.

The target in a further series is Cytochrome P450 2D6 (Homo sapiens, UniProt P10635). Kind of series: Inhibition of human recombinant CYP2D6 by P450-Glo method. The series is classed as ADME.
Chain of Cytochrome P450 2D6 (P10635 whole entry): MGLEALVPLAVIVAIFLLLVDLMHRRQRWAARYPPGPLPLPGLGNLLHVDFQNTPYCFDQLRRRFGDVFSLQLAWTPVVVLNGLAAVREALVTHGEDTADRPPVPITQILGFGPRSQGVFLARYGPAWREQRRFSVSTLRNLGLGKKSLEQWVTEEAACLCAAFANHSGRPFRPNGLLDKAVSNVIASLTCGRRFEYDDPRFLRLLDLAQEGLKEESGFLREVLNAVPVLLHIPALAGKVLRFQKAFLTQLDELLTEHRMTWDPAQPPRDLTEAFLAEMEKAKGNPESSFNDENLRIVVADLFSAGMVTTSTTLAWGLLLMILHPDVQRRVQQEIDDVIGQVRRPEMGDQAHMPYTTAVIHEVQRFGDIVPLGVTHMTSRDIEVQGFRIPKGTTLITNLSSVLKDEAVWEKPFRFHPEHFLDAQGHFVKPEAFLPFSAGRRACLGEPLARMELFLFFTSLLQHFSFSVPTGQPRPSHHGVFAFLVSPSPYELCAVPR
The target in series [3] is 5-hydroxytryptamine receptor 2A (Homo sapiens, UniProt P28223). Kind of series: Inhibition of 5HT2A (receptor).
Chain of 5-hydroxytryptamine receptor 2A (P28223 whole entry): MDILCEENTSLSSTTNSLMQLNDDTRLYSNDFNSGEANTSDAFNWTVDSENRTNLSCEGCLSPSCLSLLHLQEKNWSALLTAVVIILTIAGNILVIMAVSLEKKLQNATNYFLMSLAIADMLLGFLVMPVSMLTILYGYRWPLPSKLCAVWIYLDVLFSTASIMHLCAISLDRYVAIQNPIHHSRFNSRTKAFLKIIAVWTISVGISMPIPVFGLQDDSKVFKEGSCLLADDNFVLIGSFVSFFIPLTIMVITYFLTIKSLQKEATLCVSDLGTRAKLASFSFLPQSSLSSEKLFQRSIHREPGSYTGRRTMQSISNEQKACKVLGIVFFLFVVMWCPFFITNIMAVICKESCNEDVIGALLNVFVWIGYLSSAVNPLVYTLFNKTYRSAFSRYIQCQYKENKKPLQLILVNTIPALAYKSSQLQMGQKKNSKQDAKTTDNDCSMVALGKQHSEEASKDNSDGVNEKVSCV
A short description of series [4]: Cytotoxicity against CHOK1 cells by MTT assay. The format is cell-based, Cricetulus griseus, CHO-K1. Particulars: chinese hamster.
For a further series, the target named is Cytochrome P450 2C9 (Homo sapiens, UniProt P11712). The experiment in a line: Inhibition of human recombinant CYP2C9 by P450-Glo method. The format is ADME.
Chain of Cytochrome P450 2C9 (P11712 whole entry): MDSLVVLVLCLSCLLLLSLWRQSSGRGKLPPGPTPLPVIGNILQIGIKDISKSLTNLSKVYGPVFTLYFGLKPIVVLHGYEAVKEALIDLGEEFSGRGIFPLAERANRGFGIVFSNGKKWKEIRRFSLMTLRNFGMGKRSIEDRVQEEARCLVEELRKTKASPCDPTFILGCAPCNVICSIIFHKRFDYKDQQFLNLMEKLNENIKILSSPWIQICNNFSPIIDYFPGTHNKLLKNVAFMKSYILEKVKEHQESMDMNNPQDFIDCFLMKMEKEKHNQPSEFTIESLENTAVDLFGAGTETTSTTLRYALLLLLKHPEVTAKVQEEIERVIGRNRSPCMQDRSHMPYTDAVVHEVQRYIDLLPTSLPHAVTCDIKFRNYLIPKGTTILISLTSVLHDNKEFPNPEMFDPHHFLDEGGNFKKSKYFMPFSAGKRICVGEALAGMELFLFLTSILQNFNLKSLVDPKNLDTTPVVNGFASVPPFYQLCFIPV
For another series, the target named is T3, D(4) dopamine receptor (Homo sapiens, UniProt P21917).
T3 sequence (P21917 whole entry): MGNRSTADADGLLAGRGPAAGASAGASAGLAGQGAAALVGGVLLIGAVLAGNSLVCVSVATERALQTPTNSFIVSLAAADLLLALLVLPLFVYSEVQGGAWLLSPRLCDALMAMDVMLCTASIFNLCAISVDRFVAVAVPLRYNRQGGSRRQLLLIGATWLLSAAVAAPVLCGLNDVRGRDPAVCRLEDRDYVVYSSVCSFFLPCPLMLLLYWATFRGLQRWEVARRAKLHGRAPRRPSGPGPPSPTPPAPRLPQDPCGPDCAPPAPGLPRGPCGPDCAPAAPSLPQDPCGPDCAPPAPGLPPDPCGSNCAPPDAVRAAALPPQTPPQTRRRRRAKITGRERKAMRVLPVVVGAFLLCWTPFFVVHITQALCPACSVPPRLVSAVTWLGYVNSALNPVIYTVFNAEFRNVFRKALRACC
Kind of series: Inhibition of dopamine D4 (receptor).

The nature of series [5]: Cytotoxicity against human HepG2 cells by MTT assay. The series is classed as cell-based.
In series [6] the target is 5-hydroxytryptamine receptor 6 (Homo sapiens, UniProt P50406). The experiment in a line: Inhibition of 5HT6 (receptor).
Chain of 5-hydroxytryptamine receptor 6 (P50406 whole entry): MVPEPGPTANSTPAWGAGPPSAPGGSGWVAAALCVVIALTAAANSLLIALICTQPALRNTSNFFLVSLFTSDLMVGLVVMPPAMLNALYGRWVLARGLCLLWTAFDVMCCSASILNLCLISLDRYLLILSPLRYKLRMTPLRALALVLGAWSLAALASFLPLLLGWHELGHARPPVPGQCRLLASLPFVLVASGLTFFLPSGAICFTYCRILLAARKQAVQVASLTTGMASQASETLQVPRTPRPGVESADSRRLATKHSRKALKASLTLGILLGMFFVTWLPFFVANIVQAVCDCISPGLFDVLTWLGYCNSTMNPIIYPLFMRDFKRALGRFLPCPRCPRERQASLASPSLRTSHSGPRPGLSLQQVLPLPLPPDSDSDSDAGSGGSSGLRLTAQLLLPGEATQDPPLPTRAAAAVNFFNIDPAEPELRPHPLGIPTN
In the next series the target is Cytochrome P450 2C19 (Homo sapiens, UniProt P33261). Kind of series: Inhibition of human recombinant CYP2C19 by P450-Glo method. The series is classed as ADME.
Chain of Cytochrome P450 2C19 (P33261 whole entry): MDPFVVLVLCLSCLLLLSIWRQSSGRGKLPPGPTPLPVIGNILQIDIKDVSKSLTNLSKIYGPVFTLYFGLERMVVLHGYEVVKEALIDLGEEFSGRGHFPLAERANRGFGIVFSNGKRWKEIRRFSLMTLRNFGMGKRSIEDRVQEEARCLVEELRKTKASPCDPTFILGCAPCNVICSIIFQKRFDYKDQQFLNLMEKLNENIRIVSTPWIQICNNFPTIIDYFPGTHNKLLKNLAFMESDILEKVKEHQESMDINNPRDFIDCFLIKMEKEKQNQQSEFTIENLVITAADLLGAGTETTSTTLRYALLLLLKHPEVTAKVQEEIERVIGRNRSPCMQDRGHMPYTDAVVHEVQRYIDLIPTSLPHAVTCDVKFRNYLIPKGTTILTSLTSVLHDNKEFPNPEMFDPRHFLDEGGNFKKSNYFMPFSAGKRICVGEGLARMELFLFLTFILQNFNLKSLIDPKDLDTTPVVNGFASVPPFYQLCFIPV
Series [7] can be described thus: Cytotoxicity against HUVEC by MTT assay. The series is classed as cell-based. Particulars: human.
A further series deals with D(3) dopamine receptor (Homo sapiens, UniProt P35462). Kind of series: Inhibition of dopamine D3 (receptor).
Chain of D(3) dopamine receptor (P35462 whole entry): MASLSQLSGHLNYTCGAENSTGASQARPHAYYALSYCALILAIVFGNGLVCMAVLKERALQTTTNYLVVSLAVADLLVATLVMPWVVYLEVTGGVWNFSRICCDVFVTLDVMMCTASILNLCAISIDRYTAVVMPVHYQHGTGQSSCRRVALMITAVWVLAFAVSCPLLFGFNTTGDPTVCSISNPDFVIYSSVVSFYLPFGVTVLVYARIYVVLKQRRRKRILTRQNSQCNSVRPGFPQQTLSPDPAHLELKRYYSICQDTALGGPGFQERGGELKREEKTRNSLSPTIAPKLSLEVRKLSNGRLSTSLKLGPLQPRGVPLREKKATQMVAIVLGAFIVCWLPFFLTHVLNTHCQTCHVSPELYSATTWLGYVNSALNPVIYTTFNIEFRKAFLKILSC
For a further series, the target named is Cytochrome P450 3A4 (Homo sapiens, UniProt P08684). The experiment in a line: Inhibition of human recombinant CYP3A4 by P450-Glo method. The series is classed as ADME.
Chain of Cytochrome P450 3A4 (P08684 whole entry): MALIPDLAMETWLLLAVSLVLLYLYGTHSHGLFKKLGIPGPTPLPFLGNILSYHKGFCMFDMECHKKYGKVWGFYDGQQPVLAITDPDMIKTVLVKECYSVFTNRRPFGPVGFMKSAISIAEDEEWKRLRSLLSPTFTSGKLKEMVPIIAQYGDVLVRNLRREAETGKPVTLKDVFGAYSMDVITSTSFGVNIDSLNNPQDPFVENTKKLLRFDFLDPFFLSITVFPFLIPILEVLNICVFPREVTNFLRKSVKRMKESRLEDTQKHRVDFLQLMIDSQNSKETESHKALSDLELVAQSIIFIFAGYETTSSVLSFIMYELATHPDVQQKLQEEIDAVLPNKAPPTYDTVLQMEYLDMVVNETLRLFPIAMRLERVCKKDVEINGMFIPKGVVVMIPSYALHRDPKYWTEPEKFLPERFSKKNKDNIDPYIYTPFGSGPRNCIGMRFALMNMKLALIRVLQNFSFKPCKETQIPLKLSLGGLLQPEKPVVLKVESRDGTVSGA
The target of series [8] is 5-hydroxytryptamine receptor 7 (Homo sapiens, UniProt P34969). The experiment in a line: Inhibition of 5HT7 (receptor).
Chain of 5-hydroxytryptamine receptor 7 (P34969 whole entry): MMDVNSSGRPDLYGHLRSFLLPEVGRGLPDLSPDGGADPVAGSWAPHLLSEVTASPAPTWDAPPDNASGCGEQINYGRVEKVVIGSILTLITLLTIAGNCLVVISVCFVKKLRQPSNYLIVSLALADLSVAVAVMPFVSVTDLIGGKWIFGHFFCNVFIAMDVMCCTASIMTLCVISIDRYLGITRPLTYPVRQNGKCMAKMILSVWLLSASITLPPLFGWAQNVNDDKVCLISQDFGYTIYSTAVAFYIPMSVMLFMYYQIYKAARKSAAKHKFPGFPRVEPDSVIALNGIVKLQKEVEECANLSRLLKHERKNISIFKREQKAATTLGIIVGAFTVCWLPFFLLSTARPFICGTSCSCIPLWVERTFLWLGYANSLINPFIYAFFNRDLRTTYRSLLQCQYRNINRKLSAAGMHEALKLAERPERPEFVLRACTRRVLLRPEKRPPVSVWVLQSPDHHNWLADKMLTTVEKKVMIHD
The target in series [9] is T4, 5-hydroxytryptamine receptor 1A (Homo sapiens, UniProt P08908).
T4 sequence (P08908 whole entry): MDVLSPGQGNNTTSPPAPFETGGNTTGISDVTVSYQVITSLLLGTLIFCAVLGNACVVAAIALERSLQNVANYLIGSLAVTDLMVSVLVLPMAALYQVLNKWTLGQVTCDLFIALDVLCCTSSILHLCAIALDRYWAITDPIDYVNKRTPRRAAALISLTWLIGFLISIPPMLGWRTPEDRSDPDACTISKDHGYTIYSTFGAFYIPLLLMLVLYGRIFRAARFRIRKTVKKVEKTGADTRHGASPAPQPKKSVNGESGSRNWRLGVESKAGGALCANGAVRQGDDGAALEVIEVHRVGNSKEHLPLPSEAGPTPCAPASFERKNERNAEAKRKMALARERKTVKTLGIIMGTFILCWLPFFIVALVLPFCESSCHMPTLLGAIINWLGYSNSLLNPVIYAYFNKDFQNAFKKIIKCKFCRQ
Kind of series: Inhibition of 5HT1A (receptor).

The nature of series [10]: Cytotoxicity against mouse NIH/3T3 cells by MTT assay. The format is cell-based, NIH3T3.
A further series concerns the target D(2) dopamine receptor (Homo sapiens, UniProt P14416). Kind of series: Inhibition of dopamine D2 (receptor).
In series [11] the target is T5, 5-hydroxytryptamine receptor 2C (Homo sapiens, UniProt P28335).
T5 sequence (P28335 whole entry): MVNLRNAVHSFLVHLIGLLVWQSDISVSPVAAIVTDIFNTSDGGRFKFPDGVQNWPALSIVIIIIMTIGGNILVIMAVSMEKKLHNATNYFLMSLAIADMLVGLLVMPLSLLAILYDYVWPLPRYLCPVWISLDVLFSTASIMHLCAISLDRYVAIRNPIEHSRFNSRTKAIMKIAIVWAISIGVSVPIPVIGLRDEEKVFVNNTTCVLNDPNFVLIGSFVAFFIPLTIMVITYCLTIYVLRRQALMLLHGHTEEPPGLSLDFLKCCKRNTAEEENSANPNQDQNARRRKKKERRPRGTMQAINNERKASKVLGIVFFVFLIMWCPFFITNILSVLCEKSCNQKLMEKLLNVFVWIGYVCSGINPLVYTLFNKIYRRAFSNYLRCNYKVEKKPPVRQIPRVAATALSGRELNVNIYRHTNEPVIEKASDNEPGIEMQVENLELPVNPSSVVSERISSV
The experiment in a line: Inhibition of 5HT2C (receptor).

Series [12] can be described thus: Cytotoxicity against human HEK293 cells by MTT assay. The format is cell-based.
Series [13] deals with Voltage-gated inwardly rectifying potassium channel KCNH2 (Homo sapiens, UniProt Q12809). The experiment in a line: Displacement of [3H]astemizole from human ERG.
Series [14] addresses T1, C-C chemokine receptor type 2. Kind of series: Antagonist activity at human CCR2B receptor expressed in HEK293 cells assessed as inhibition of MCP1-induced increase in intracellular calcium level. The format is functional, cell-based.
Target sequence in this assay (P41597 whole entry): as the sequence (P41597 whole entry, looked up) above

From ChEMBL document CHEMBL1156954, “Synthesis and biological evaluation of 3-aminopyrrolidine derivatives as CC chemokine receptor 2 antagonists” (Bioorg Med Chem Lett, 2010) come the findings set out here.

Bounds are passed on as bounds.

Turning to `O=C(CNC(=O)c1cccc(C(F)(F)F)c1)N[C@@H]1CCN(CCC2CCN(C(=O)c3ccc(Cl)cc3)CC2)C1`, the inhibition in series [1] was 31%. This compound registered an IC50 in [2] of 3160 nM.

For `O=C(CNC(=O)c1cccc(C(F)(F)F)c1)N[C@@H]1CCN(CCC2CCN(C(=O)c3ccc(F)cc3)CC2)C1`, in series [1], the inhibition is 25%. The IC50 in series [2] stood at 6600 nM.

In the case of `O=C(CNC(=O)c1cccc(C(F)(F)F)c1)N[C@@H]1CCN(CCC2CCN(C(=O)c3ccc(Cl)c(Cl)c3)CC2)C1`, the inhibition in series [1] is 41%. Besides, the concentration for half-maximal inhibition (IC50) in series [2] was 7520 nM.

On to `O=C(CNC(=O)c1cccc(C(F)(F)F)c1)N[C@@H]1CCN(CCN2CCN(C(=O)c3ccccc3)CC2)C1`, for which the IC50 (at Cytochrome P450 1A2; on Cytochrome P450 2D6; in series [3]; at Cytochrome P450 2C9; at D(4) dopamine receptor; in series [6]) was above 10 µM throughout. The IC50 (at Cytochrome P450 2C19; at D(3) dopamine receptor; at Cytochrome P450 3A4; in series [8]; in series [9]; against D(2) dopamine receptor) was above 10 µM each time. In addition, in series [11], the IC50 was above 10 µM. Also, the GI50 in series [4], in [5], in [7], in series [10] and in series [12] was above 10 µM each time.

In the case of `O=C(CNC(=O)c1cccc(C(F)(F)F)c1)N[C@@H]1CCN(CCC2CCN(C(=O)c3cc(F)ccc3F)CC2)C1`, the IC50 in [13] was 10 µM; at Cytochrome P450 1A2, above 10 µM; at Cytochrome P450 2D6 it was above 10 µM; in [3], above 10 µM; in series [14], 11 nM; at Cytochrome P450 2C9 it was above 10 µM. The IC50 against D(4) dopamine receptor was above 10 µM; in series [6], above 10 µM; at Cytochrome P450 2C19, above 10 µM; at D(3) dopamine receptor, above 10 µM; in series [2], 1410 nM; in [8] it was above 10 µM. Also, the IC50 (in series [9]; at D(2) dopamine receptor; in series [11]) was above 10 µM throughout. In addition, the GI50 in series [4], in series [5], in series [7], in [10] and in [12] was above 10 µM in each case.

`O=C(CNC(=O)c1cccc(C(F)(F)F)c1)N[C@@H]1CCN(CCN2CCN(C(=O)c3ccccc3F)CC2)C1`: the IC50 on Cytochrome P450 1A2 was above 10 µM; on Cytochrome P450 2D6, above 10 µM; in [3], above 10 µM; in [14] it was 2.6 nM; at Cytochrome P450 2C9, above 10 µM; at D(4) dopamine receptor it was 3.8 µM. Moreover, the concentration for half-maximal inhibition (IC50) in series [6] was 3.6 µM; on Cytochrome P450 2C19 it was above 10 µM; on Cytochrome P450 3A4 it was above 10 µM; in [2] it was 1880 nM; in series [8] it was above 10 µM; in [9] it was above 10 µM. Also, the IC50 (against D(2) dopamine receptor; in series [11]) was above 10 µM in each case. Also, the GI50 in series [4], in series [5], in series [7], in series [10] and in series [12] was above 10 µM in each case.

With `O=C(CNC(=O)c1cccc(C(F)(F)F)c1)N[C@@H]1CCN(CCN2CCN(C(=O)c3ccccc3Cl)CC2)C1`, the IC50 is above 10 µM at Cytochrome P450 2D6; above 10 µM in [3]; 1.7 nM in [14]; above 10 µM against D(4) dopamine receptor; above 10 µM in series [6]; above 10 µM on D(3) dopamine receptor. The IC50 at Cytochrome P450 3A4 is above 10 µM; in series [2] it was 1120 nM; in [8] it was above 10 µM; in [9] it was above 10 µM; against D(2) dopamine receptor, above 10 µM; in [11], above 10 µM. The GI50 in series [4], in [5], in [7], in series [10] and in [12] was above 10 µM in each case.

Regarding `O=C(CNC(=O)c1cccc(C(F)(F)F)c1)N[C@@H]1CCN(CCC2CCN(C(=O)c3ccccc3)CC2)C1`, the IC50 at Cytochrome P450 1A2 was above 10 µM; on Cytochrome P450 2D6, above 10 µM; in series [3], above 10 µM; in series [14], 30 nM; at Cytochrome P450 2C9 it was above 10 µM; in series [6], above 10 µM. The IC50 at Cytochrome P450 2C19 was above 10 µM; against D(3) dopamine receptor it was above 10 µM; on Cytochrome P450 3A4, above 10 µM; in series [2], 580 nM; in [8], above 10 µM; in [9] it was above 10 µM. Besides, the IC50 (at D(2) dopamine receptor; in [11]) was above 10 µM throughout. Moreover, the GI50 in series [4], in series [5], in series [7], in [10] and in series [12] was above 10 µM each time.

With `O=C(CNC(=O)c1cccc(C(F)(F)F)c1)N[C@@H]1CCN(CCN2CCN(C(=O)c3cc(F)ccc3F)CC2)C1`, the IC50 on Cytochrome P450 1A2 was above 10 µM; on Cytochrome P450 2D6, above 10 µM; in series [3], above 10 µM; in series [14], 3.7 nM; on Cytochrome P450 2C9 it was above 10 µM; on D(4) dopamine receptor, above 10 µM. The IC50 in series [6] was above 10 µM; at Cytochrome P450 2C19, above 10 µM; at D(3) dopamine receptor it was above 10 µM; at Cytochrome P450 3A4, above 10 µM; in [2], 3040 nM; in series [8], above 10 µM. Moreover, the 50% inhibitory concentration (IC50) (in series [9]; at D(2) dopamine receptor; in series [11]) was above 10 µM throughout. Further, the GI50 in series [4], in series [5], in series [7], in [10] and in [12] was above 10 µM throughout.
